Laboratory results from patent US20250340571A1, “COMPOSITIONS USEFUL FOR MODULATING SPLICING” (Skyhawk Therapeutics, Inc., priority 2022, published 2025).

How the values were obtained:
total ATXN3 protein = assay: ATXN3 total protein assay (MSD); assay type: cell-based, human; conditions: SK-N-MC cells, 48 h incubation
Protocol: Human neuroblastoma SK-N-MC cells were seeded at 10,000 cells/well in 384 well plates one day prior to compound treatment. The concentrations of compounds were tested at appropriate doses ranging from 30 μM to 0.6 nM. After incubation for 48 hours, the cells were lysed with 25 μL of lysis buffer containing protease inhibitors, and total ATXN3 protein levels were assessed by Mesoscale Discovery (MSD) assay developed with one pair of anti-ATXN3 antibodies. The capture and detect antibodies were raised in mouse and rabbit respectively. Anti-rabbit MSD-ST antibody was used for secondary antibody.
ATXN3 recombinant protein was used for standards. The readouts were captured with 35 μL of MSD read buffer and multi-array 384-well high binding plates.

[1] = tested on: ATXN3 pre-mRNA (transcripts containing exon 4); assay: ATXN3 quantitative splicing assay (qPCR, E4E5 transcripts containing exon 4); assay type: cell-based; conditions: Homo sapiens; SK-N-MC cells, 24 h treatment, qPCR E4E5 primers/probe
Protocol: Human neuroblastoma SK-N-MC cells were plated in 384-well plates at 20,000 cells/well. Twenty-four hours after plating, cells were treated with compounds for 24 h at appropriate concentrations ranging from 30 μM to 0.6 nM (0.3% DMSO). Treated cells were lysed in 15 μL of lysis buffer, and cDNA was synthesized using the Fast Advanced Cells-to-Ct kit. Two μL of each cDNA was used in qPCR reactions to confirm the exon 4 skipped transcripts of ATXN3. A second set of primers/probe E4E5 was used to detect the transcripts containing exon 4. The third set of primers/probe E8E9 was used to detect total gene level of ATXN3. The qPCR reactions were prepared in 384-well plates in 10 μL volume, using TaqMan™ Fast Advanced Master Mix with primers and probes shown in the table below. Reactions were run in a Quant Studio 6 qPCR instrument with default settings.
The primers and probes are listed below in Table 5.

| SMILES | IC50 (total ATXN3 protein) | IC50 [1] |
| --- | --- | --- |
| C[C@H](N)Cc1sc2c(NCc3cccs3)snc2c1-n1cccn1 [Compound 3, 7-[(S)-2-aminopropyl]-8-(1-pyrazolyl)-4-thenylamino-3,6-dithia-2-azabicyclo[3.3.0]octa-1,4,7-triene] | 10000 to 40000 nM | 10000 to 40000 nM |
| C#Cc1c(C[C@H](C)N)sc2c(NCc3cccs3)snc12 [Compound 4, 5-[(2S)-2-aminopropyl]-6-ethynyl-N-(thiophen-2-ylmethyl)thieno[3,2-c][1,2]thiazol-3-amine] | 101 to 500 nM | 101 to 500 nM |
| C[C@H](N)Cc1sc2c(NCc3cccs3)snc2c1-c1ccncc1 [Compound 5, 7-[(S)-2-aminopropyl]-8-(4-pyridyl)-4-thenylamino-3,6-dithia-2-azabicyclo[3.3.0]octa-1,4,7-triene] | 10000 to 40000 nM | 10000 to 40000 nM |
| C[C@H](N)Cc1sc2c(NCc3cccs3)snc2c1-c1cccnc1 [Compound 6, 7-[(S)-2-aminopropyl]-8-(3-pyridyl)-4-thenylamino-3,6-dithia-2-azabicyclo[3.3.0]octa-1,4,7-triene] | 10000 to 40000 nM | 10000 to 40000 nM |
| C[C@H](N)Cc1sc2c(NCc3cccs3)snc2c1-c1ccccn1 [Compound 7, 5-[(2S)-2-aminopropyl]-6-(pyridin-2-yl)-N-(thiophen-2-ylmethyl)thieno[3,2-c][1,2]thiazol-3-amine] | 10000 to 40000 nM | 10000 to 40000 nM |
| C[C@H](N)Cc1sc2c(NCc3cccs3)snc2c1-n1ccnc1 [Compound 8, 5-[(2S)-2-aminopropyl]-6-(imidazol-1-yl)-N-(thiophen-2-ylmethyl)thieno[3,2-c][1,2]thiazol-3-amine] | 10000 to 40000 nM | 10000 to 40000 nM |
| C[C@H](N)Cc1sc2c(NCc3ccco3)snc2c1-c1ccncc1 [Compound 10, 7-[(S)-2-aminopropyl]-4-(furfurylamino)-8-(4-pyridyl)-3,6-dithia-2-azabicyclo[3.3.0]octa-1,4,7-triene] | 10000 to 40000 nM | 10000 to 40000 nM |
| C#Cc1c(C[C@H](C)N)sc2c(NCc3ccco3)snc12 [Compound 11, 7-[(S)-2-aminopropyl]-8-ethynyl-4-(furfurylamino)-3,6-dithia-2-azabicyclo[3.3.0]octa-1,4,7-triene] | 0.01 to 100 nM | 0.01 to 100 nM |
| C[C@H](N)Cc1sc2c(NCc3ccco3)snc2c1-c1cccnc1 [Compound 12, 7-[(S)-2-aminopropyl]-4-(furfurylamino)-8-(3-pyridyl)-3,6-dithia-2-azabicyclo[3.3.0]octa-1,4,7-triene] | 10000 to 40000 nM | 10000 to 40000 nM |
| C#Cc1c(C[C@@H](N)COC)sc2c(NCc3ccco3)snc12 [Compound 14, 7-[(R)-2-amino-3-methoxypropyl]-8-ethynyl-4-(furfurylamino)-3,6-dithia-2-azabicyclo[3.3.0]octa-1,4,7-triene] | 501 to 5000 nM | 501 to 5000 nM |
| C#Cc1c(C[C@@H](N)[C@H](C)F)sc2c(NCc3nccs3)snc12 [Compound 22, 7-[(2R,3S)-2-amino-3-fluorobutyl]-8-ethynyl-4-{[(1,3-thiazol-2-yl)methyl]amino}-3,6-dithia-2-azabicyclo[3.3.0]octa-1,4,7-triene] | 0.01 to 100 nM | 101 to 500 nM |
| C#Cc1c(C[C@@H](N)[C@@H](C)F)sc2c(NCc3ccco3)snc12 [Compound 24, 7-[(2R,3R)-2-amino-3-fluorobutyl]-8-ethynyl-4-(furfurylamino)-3,6-dithia-2-azabicyclo[3.3.0]octa-1,4,7-triene] | 501 to 5000 nM | 101 to 500 nM |
| C#Cc1c(C[C@@H](N)[C@H](C)F)sc2c(NCc3ccco3)snc12 [Compound 25, 7-[(2R,3S)-2-amino-3-fluorobutyl]-8-ethynyl-4-(furfurylamino)-3,6-dithia-2-azabicyclo[3.3.0]octa-1,4,7-triene] | 101 to 500 nM | 101 to 500 nM |
| C#Cc1c(C[C@@H](N)COC)sc2c(NCc3ccccc3)snc12 [Compound 30, 7-[(R)-2-amino-3-methoxypropyl]-4-benzylamino-8-ethynyl-3,6-dithia-2-azabicyclo[3.3.0]octa-1,4,7-triene] | 10000 to 40000 nM | 10000 to 40000 nM |
| C#Cc1c(C[C@@H](N)CC2CC2)sc2c(NCc3ccco3)snc12 [Compound 32, 7-[(S)-2-amino-3-cyclopropylpropyl]-8-ethynyl-4-(furfurylamino)-3,6-dithia-2-azabicyclo[3.3.0]octa-1,4,7-triene] | 101 to 500 nM | 101 to 500 nM |
| C#Cc1c(C[C@@H](N)C(F)F)sc2c(NCc3ccco3)snc12 [Compound 37, 7-[(R)-2-amino-3,3-difluoropropyl]-8-ethynyl-4-(furfurylamino)-3,6-dithia-2-azabicyclo[3.3.0]octa-1,4,7-triene] | 501 to 5000 nM | 501 to 5000 nM |
| C[C@H](N)Cc1sc2c(NCc3cccs3)snc2c1-c1ncco1 [Compound 40, 7-[(S)-2-aminopropyl]-8-(1,3-oxazol-2-yl)-4-thenylamino-3,6-dithia-2-azabicyclo[3.3.0]octa-1,4,7-triene] | 501 to 5000 nM | 501 to 5000 nM |
| C[C@H](F)[C@H](N)Cc1sc2c(NCc3cccs3)snc2c1-c1ncco1 [Compound 41, 7-[(2R,3S)-2-amino-3-fluorobutyl]-8-(1,3-oxazol-2-yl)-4-thenylamino-3,6-dithia-2-azabicyclo[3.3.0]octa-1,4,7-triene] | 501 to 5000 nM | 501 to 5000 nM |

Now from value to molecule:

| IC50 (total ATXN3 protein) | IC50 [1] | SMILES |
| --- | --- | --- |
| 0.01 to 100 nM | 0.01 to 100 nM | C#Cc1c(C[C@@H](N)CO)sc2c(NCc3ccco3)snc12 [Compound 13, (R)-2-amino-3-{8-ethynyl-4-(furfurylamino)-3,6-dithia-2-azabicyclo[3.3.0]octa-1,4,7-trien-7-yl}-1-propanol] |
| 501 to 5000 nM | 501 to 5000 nM | C#Cc1c(C[C@@H](N)COC)sc2c(NCc3cccs3)snc12 [Compound 15, 7-[(R)-2-amino-3-methoxypropyl]-8-ethynyl-4-thenylamino-3,6-dithia-2-azabicyclo[3.3.0]octa-1,4,7-triene] |
| 0.01 to 100 nM | 0.01 to 100 nM | C#Cc1c(C[C@@H](N)CO)sc2c(NCc3cccs3)snc12 [Compound 16, (R)-2-amino-3-(8-ethynyl-4-thenylamino-3,6-dithia-2-azabicyclo[3.3.0]octa-1,4,7-trien-7-yl)-1-propanol] |
| 501 to 5000 nM | 101 to 500 nM | C#Cc1c(C[C@@H](N)CF)sc2c(NCc3cccs3)snc12 [Compound 17, 7-[(R)-2-amino-3-fluoropropyl]-8-ethynyl-4-thenylamino-3,6-dithia-2-azabicyclo[3.3.0]octa-1,4,7-triene] |
| 101 to 500 nM | 101 to 500 nM | C#Cc1c(C[C@@H](N)[C@H](C)F)sc2c(NCc3cccs3)snc12 [Compound 19, 5-[(2R,3S)-2-amino-3-fluorobutyl]-6-ethynyl-N-(thiophen-2-ylmethyl)thieno[3,2-c][1,2]thiazol-3-amine] |
| 501 to 5000 nM | 101 to 500 nM | C#Cc1c(C[C@@H](N)CF)sc2c(NCc3ccco3)snc12 [Compound 23, 7-[(R)-2-amino-3-fluoropropyl]-8-ethynyl-4-(furfurylamino)-3,6-dithia-2-azabicyclo[3.3.0]octa-1,4,7-triene] |
| 501 to 5000 nM | 501 to 5000 nM | C#Cc1c(C[C@@H](N)CC2CC2)sc2c(NCc3cccs3)snc12 [Compound 33, 7-[(S)-2-amino-3-cyclopropylpropyl]-8-ethynyl-4-thenylamino-3,6-dithia-2-azabicyclo[3.3.0]octa-1,4,7-triene] |
| 501 to 5000 nM | 501 to 5000 nM | C#Cc1c(C[C@@H](N)COC2CC2)sc2c(NCc3cccs3)snc12 [Compound 34, 7-[(R)-2-amino-3-cyclopropoxypropyl]-8-ethynyl-4-thenylamino-3,6-dithia-2-azabicyclo[3.3.0]octa-1,4,7-triene] |
| 501 to 5000 nM | 501 to 5000 nM | C#Cc1c(C(F)(F)[C@H](C)N)sc2c(NCc3cccs3)snc12 [Compound 35, 7-[(S)-2-amino-1,1-difluoropropyl]-8-ethynyl-4-thenylamino-3,6-dithia-2-azabicyclo[3.3.0]octa-1,4,7-triene] |
